51 molecules from patent publication US10710986B2, “PD-1/PD-L1 inhibitors” (Gilead Sciences, Inc., priority 2018, dated 2020) can be followed below.

pIC50: −log10 of the molar value.

The test deals with PD-1/PD-L1 (Homo sapiens (Human), UniProt Q9NZQ7). Description: PD-1/PD-L1 biochemical protein-protein interaction assay (ALPHA). As to conditions: 0.3 nM His tagged PD-L1, 2.5 nM biotinylated Fc-PD-1, 60 minutes at 25° C., read-out: IC50 PD-L1-PD1.
Chain of PD-1/PD-L1 (Q9NZQ7 19-238): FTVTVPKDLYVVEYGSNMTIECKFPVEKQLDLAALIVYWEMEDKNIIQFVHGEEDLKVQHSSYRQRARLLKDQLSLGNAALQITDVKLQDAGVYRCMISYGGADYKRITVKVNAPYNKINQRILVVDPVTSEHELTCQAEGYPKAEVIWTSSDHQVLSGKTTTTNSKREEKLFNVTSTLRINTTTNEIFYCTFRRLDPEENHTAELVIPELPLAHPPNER
The term pIC50 denotes −log10 of the IC50, conventionally taken in molar units. In the case of `COc1nc(-c2cccc(-c3cccc(-c4cnc(CNC[C@@H]5CCC(=O)N5)c(OC)n4)c3Cl)c2Cl)cnc1CNCC1CNC1` [compound 255], the pIC50 is 10.10.

As to `COc1nc(-c2cccc(-c3cccc(-c4cnc(CN5CCN(C=O)CC5)c(OC)n4)c3Cl)c2Cl)cnc1CNC[C@@H]1CCC(=O)N1` [compound 256], the pIC50 was 9.80. As for `COc1nc(-c2cccc(-c3cccc(-c4cnc(CN[C@H](CO)C(C)C)c(OC)n4)c3Cl)c2Cl)cnc1CNC[C@@H]1CCC(=O)N1` [compound 257], the figure is 9.37. To `COc1nc(-c2cccc(-c3cccc(-c4cnc(CN(CCO)CC(F)(F)F)c(OC)n4)c3Cl)c2Cl)cnc1CNC[C@@H]1CCC(=O)N1` [compound 258] belongs 9.17. As for `COc1nc(-c2cccc(-c3cccc(-c4cnc(CN5CCN[C@H](C6CC6)C5)c(OC)n4)c3Cl)c2Cl)cnc1CNC[C@@H]1CCC(=O)N1` [compound 259], the figure is 9.56; as for `COc1nc(-c2cccc(-c3cccc(-c4cnc(CN5CC[C@@H](OC)[C@@H](F)C5)c(OC)n4)c3Cl)c2Cl)cnc1CNC[C@@H]1CCC(=O)N1` [compound 260], 9.53; as for `COc1nc(-c2cccc(-c3cccc(-c4cnc(CN5CCCC(F)(CO)C5)c(OC)n4)c3Cl)c2Cl)cnc1CNC[C@@H]1CCC(=O)N1` (stereo partly drawn) [compound 261], 9.89. Take `COc1nc(-c2cccc(-c3cccc(-c4cnc(CNC[C@@H]5CC(C)C(=O)N5)c(OC)n4)c3Cl)c2Cl)cnc1CNC[C@@H]1CCC(=O)N1` (stereo partly drawn) [compound 262]: the pIC50 was 9.33. For the molecule `COc1nc(-c2cccc(-c3cccc(-c4cnc(CN5C[C@@H](O)C[C@@H](F)C5)c(OC)n4)c3Cl)c2Cl)cnc1CNC[C@@H]1CCC(=O)N1` [compound 263], the pIC50 was 9.42. As for `COc1nc(-c2cccc(-c3cccc(-c4cnc(CN5C[C@H](O)C[C@@H](F)C5)c(OC)n4)c3Cl)c2Cl)cnc1CNC[C@@H]1CCC(=O)N1` [compound 264], the figure is 9.39; as for `COc1nc(-c2cccc(-c3cccc(-c4cnc(CN5C[C@H](O)[C@@H](F)C5)c(OC)n4)c3Cl)c2Cl)cnc1CNC[C@@H]1CCC(=O)N1` [compound 265], 9.65. For the molecule `COc1nc(-c2cccc(-c3cccc(-c4cnc(CN5C[C@H](O)[C@@H](C#N)C5)c(OC)n4)c3Cl)c2Cl)cnc1CNC[C@@H]1CCC(=O)N1` [compound 266], the negative-log IC50 (pIC50) is 9.61. Consider `COc1nc(-c2cccc(-c3cccc(-c4cnc(CNC5CCC(F)(F)C5)c(OC)n4)c3Cl)c2Cl)cnc1CNC[C@@H]1CCC(=O)N1` (stereo partly drawn) [compound 267], for which the pIC50 was 9.22. As for `COc1nc(-c2cccc(-c3cccc(-c4cnc(CN[C@H]5C[C@H]5CO)c(OC)n4)c3Cl)c2Cl)cnc1CNC[C@@H]1CCC(=O)N1` [compound 268], the figure is 9.45; as for `COc1nc(-c2cccc(-c3cccc(-c4cnc(CN5CCN(C6CC6)CC5)c(OC)n4)c3Cl)c2Cl)cnc1CNC[C@@H]1CCC(=O)N1` [compound 269], 9.64.

With `COc1nc(-c2cccc(-c3cccc(-c4cnc(CN5CCC[C@@H](F)C5)c(OC)n4)c3Cl)c2Cl)cnc1CNC[C@@H]1CCC(=O)N1` [compound 270], the pIC50 was 9.42. To `COc1nc(-c2cccc(-c3cccc(-c4cnc(CN5CCCC(F)(F)C5)c(OC)n4)c3Cl)c2Cl)cnc1CNC[C@@H]1CCC(=O)N1` [compound 271] belongs 8.77; to `COc1nc(-c2cccc(-c3cccc(-c4cnc(CN5CCCC(C(F)F)C5)c(OC)n4)c3Cl)c2Cl)cnc1CNC[C@@H]1CCC(=O)N1` (stereo partly drawn) [compound 272], 8.62. In the case of `COc1nc(-c2cccc(-c3cccc(-c4cnc(CNC5CC6CC6C5)c(OC)n4)c3Cl)c2Cl)cnc1CNC[C@@H]1CCC(=O)N1` (stereo partly drawn) [compound 273], the pIC50 is 9.58. To `COc1nc(-c2cccc(-c3cccc(-c4cnc(CN[C@H]5C[C@@](C)(O)C5)c(OC)n4)c3Cl)c2Cl)cnc1CNC[C@@H]1CCC(=O)N1` [compound 274] belongs 9.93; to `COc1nc(-c2cccc(-c3cccc(-c4cnc(CNC[C@H]5C[C@H](O)C5)c(OC)n4)c3Cl)c2Cl)cnc1CNC[C@@H]1CCC(=O)N1` [compound 275], 10.19.

For the molecule `COc1nc(-c2cccc(-c3cccc(-c4cnc(CN[C@@H]5C[C@H]5CO)c(OC)n4)c3Cl)c2Cl)cnc1CNC[C@@H]1CCC(=O)N1` [compound 276], the pIC50 is 9.57. To `COc1nc(-c2cccc(-c3cccc(-c4cnc(CN5CC[C@H](O)[C@@H](F)C5)c(OC)n4)c3Cl)c2Cl)cnc1CNC[C@@H]1CCC(=O)N1` [compound 277] belongs 9.19; to `COc1nc(-c2cccc(-c3cccc(-c4cnc(CN5CC[C@@H](O)[C@@H](F)C5)c(OC)n4)c3Cl)c2Cl)cnc1CNC[C@@H]1CCC(=O)N1` [compound 278], 9.27. Turning to `COc1nc(-c2cccc(-c3cccc(-c4cnc(CN5CC[C@@H](O)[C@H](F)C5)c(OC)n4)c3Cl)c2Cl)cnc1CNC[C@@H]1CCC(=O)N1` [compound 279], the pIC50 is 9.46.

Consider `COc1nc(-c2cccc(-c3cccc(-c4cnc(CN5CC[C@H](O)[C@H](F)C5)c(OC)n4)c3Cl)c2Cl)cnc1CNC[C@@H]1CCC(=O)N1` [compound 280], for which the pIC50 is 9.74. To `COc1nc(-c2cccc(-c3cccc(-c4cnc(CNC[C@@H]5CCC(=O)N5)c(OC)n4)c3Cl)c2Cl)cnc1CNCC1COC(=O)N1` (stereo partly drawn) [compound 281] belongs 8.92; to `COc1nc(-c2cccc(-c3cccc(-c4cnc(CN5CCC(F)(F)CC5)c(OC)n4)c3Cl)c2Cl)cnc1CNC[C@@H]1CCC(=O)N1` [compound 282], 8.80.

`COc1nc(-c2cccc(-c3cccc(-c4cnc(CNC5CC(F)C5)c(OC)n4)c3Cl)c2Cl)cnc1CNC[C@@H]1CCC(=O)N1` (stereo partly drawn) [compound 283]: the pIC50 was 9.15.

Consider `COc1nc(-c2cccc(-c3cccc(-c4cnc(CNC5CC(F)(F)C5)c(OC)n4)c3Cl)c2Cl)cnc1CNC[C@@H]1CCC(=O)N1` [compound 284], for which the pIC50 is 9.09. Consider `COc1nc(-c2cccc(-c3cccc(-c4cnc(CN5CCCC(NC(C)=O)C5)c(OC)n4)c3Cl)c2Cl)cnc1CNC[C@H]1CCC(=O)N1` (stereo partly drawn) [compound 285], for which the pIC50 was 9.45. With `COc1nc(-c2cccc(-c3cccc(-c4cnc(CNCC5(O)CCS(=O)(=O)C5)c(OC)n4)c3Cl)c2Cl)cnc1CNC[C@@H]1CCC(=O)N1` (stereo partly drawn) [compound 286], the pIC50 is 10.22.

As for `COc1nc(-c2cccc(-c3cccc(-c4cnc(CN5CC[C@H]6CNC(=O)[C@H]65)c(OC)n4)c3Cl)c2Cl)cnc1CNC[C@@H]1CCC(=O)N1` [compound 287], the pIC50 is 9.47. To `CNC(=O)CNCc1ncc(-c2cccc(-c3cccc(-c4cnc(CNC[C@@H]5CCC(=O)N5)c(OC)n4)c3Cl)c2Cl)nc1OC` [compound 288] belongs 9.59; to `COc1nc(-c2cccc(-c3cccc(-c4cnc(CN5CC6(CC(O)C6)C5)c(OC)n4)c3Cl)c2Cl)cnc1CNC[C@@H]1CCC(=O)N1` [compound 289], 10.22. Take `COc1nc(-c2cccc(-c3cccc(-c4cnc(CN5CCC6(CC5)NC(=O)NC6=O)c(OC)n4)c3Cl)c2Cl)cnc1CNC[C@@H]1CCC(=O)N1` [compound 290]: the negative logarithm of the IC50 (pIC50) is 9.59. To `COc1nc(-c2cccc(-c3cccc(-c4cnc(CN5CCCC6(C5)NC(C)=NC6=O)c(OC)n4)c3Cl)c2Cl)cnc1CNC[C@@H]1CCC(=O)N1` (stereo partly drawn) [compound 291] belongs 9.67; to `COc1nc(-c2cccc(-c3cccc(-c4cnc(CN5CCC6(C5)NC(=O)NC6=O)c(OC)n4)c3Cl)c2Cl)cnc1CNC[C@@H]1CCC(=O)N1` (stereo partly drawn) [compound 292], 9.64.

Turning to `COc1nc(-c2cccc(-c3cccc(-c4cnc(CN5CCCC6(C5)NC(=O)NC6=O)c(OC)n4)c3Cl)c2Cl)cnc1CNC[C@@H]1CCC(=O)N1` (stereo partly drawn) [compound 293], the pIC50 was 9.29. As to `COc1nc(-c2cccc(-c3cccc(-c4cnc(CN5CCC6(C5)NC(=O)N(C)C6=O)c(OC)n4)c3Cl)c2Cl)cnc1CNC[C@@H]1CCC(=O)N1` (stereo partly drawn) [compound 294], the pIC50 is 9.53. As for `COc1nc(-c2cccc(-c3cccc(-c4cnc(CN[C@@H]5CCO[C@@H]5C)c(OC)n4)c3Cl)c2Cl)cnc1CNC[C@@H]1CCC(=O)N1` [compound 295], the pIC50 is 9.38. With `COc1nc(-c2cccc(-c3cccc(-c4cnc(CNC[C@@H]5CCC(=O)N5)c(OC)n4)c3Cl)c2Cl)cnc1CNC[C@H]1CCOC1` [compound 296], the pIC50 was 9.65. On to `COc1nc(-c2cccc(-c3cccc(-c4cnc(CN(C)[C@H]5CCOC5)c(OC)n4)c3Cl)c2Cl)cnc1CNC[C@@H]1CCC(=O)N1` [compound 297], for which the pIC50 was 9.60. `COc1nc(-c2cccc(-c3cccc(-c4cnc(CN5CCC6(CC(CO)C6)C5)c(OC)n4)c3Cl)c2Cl)cnc1CNC[C@@H]1CCC(=O)N1` (stereo partly drawn) [compound 298]: the pIC50 is 9.74. As for `COc1nc(-c2cccc(-c3cccc(-c4cnc(CN5CC[C@@H](CO)[C@@H](O)C5)c(OC)n4)c3Cl)c2Cl)cnc1CNC[C@@H]1CCC(=O)N1` [compound 300], the pIC50 was 9.52. For the molecule `COc1nc(-c2cccc(-c3cccc(-c4cnc(CN5CC6(CCS6(=O)=O)C5)c(OC)n4)c3Cl)c2Cl)cnc1CNC[C@@H]1CCC(=O)N1` [compound 301], the pIC50 was 9.60. Regarding `COc1nc(-c2cccc(-c3cccc(-c4cnc(CNC[C@@H]5CCC(=O)N5)c(OC)n4)c3Cl)c2Cl)cnc1CNCC(N)=O` [compound 302], the pIC50 is 10.05.

Regarding `COc1nc(-c2cccc(-c3cccc(-c4cnc(CNC[C@@H]5CCC(=O)N5C)c(OC)n4)c3Cl)c2Cl)cnc1CNC[C@@H]1CCC(=O)N1` [compound 303], the pIC50 was 9.59.

As for `COc1nc(-c2cccc(-c3cccc(-c4cnc(CN[C@@H](CO)C(N)=O)c(OC)n4)c3Cl)c2Cl)cnc1CNC[C@@H]1CCC(=O)N1` [compound 304], the pIC50 was 9.54. For `COc1nc(-c2cccc(-c3cccc(-c4cnc(CNC[C@@H]5CCC(=O)N5)c(OC)n4)c3Cl)c2Cl)cnc1CNCc1cccn(C)c1=O` [compound 305], the pIC50 was 9.61. Take `COc1nc(-c2cccc(-c3cccc(-c4cnc(CNC[C@@H]5CCC(=O)N5)c(OC)n4)c3Cl)c2Cl)cnc1CNCC1CCS(=O)(=O)N1` (stereo partly drawn) [compound 306]: the pIC50 is 9.61.
